Results as given in patent publication US11458123B2 (Arvinas, Inc., priority 2016, dated 2022).

Test system: tau protein
Test: Tau protein in vitro degradation assay (Western blot, Tau-13 antibody)
Format: cell-based, human
Conditions: SK-N-SH cells, 72 hours of incubation; for Degradation activity* (highest amount of degradation observed at any dosage; tau protein remaining) / Degradation activity (tau protein remaining; highest amount of degradation observed at any dosage): tested at 300 nM, 100 nM, 33 nM and 11 nM, Western blot, Tau-13 antibody; for Activity* (highest amount of degradation observed at any dosage, as tau protein remaining): tested at 1000 nM, 300 nM and 100 nM
How it was run: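 Tau degradation read by Tau-13 Western blot (detects all human tau forms) of SDS-PAGE-resolved lysates from SK-N-SH cells. Cells were plated at least 18 h before 72 h exposure to PROTACs at either 1000/300/100 nM or 300/100/33/11 nM.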

| Compound | Degradation activity* (highest amount of degradation observed at any dosage; tau protein remaining) | further results |
| --- | --- | --- |
| Cn1c2ccncc2c2ccc(-c3ccc(O[C@H]4C[C@H](Oc5ccc(CCCCCCOc6ccc7c(c6)C(=O)N(C6CCC(=O)NC6=O)C7=O)nn5)C4)nc3)cc21 (stereo partly shown) [Compound 149, 2-(2,6-dioxopiperidin-3-yl)-5-((6-(6-((1r,3r)-3-((5-(5-methyl-5H-pyrido[4,3-b]indol-7-yl)pyridin-2-yl)oxy)cyclobutoxy)pyridazin-3-yl)hexyl)oxy)isoindoline-1,3-dione] | B (≤80% and >50% tau protein remaining after 72 hours of incubation with the test compound) |  |
| Cn1c2ccncc2c2c(F)c(F)c(-c3ccc(O[C@H]4C[C@H](OCCCOCCCOC5CN(c6ccc7c(c6)C(=O)N(C6CCC(=O)NC6=O)C7=O)C5)C4)nc3)cc21 (stereo partly shown) [Compound 176, 5-(3-(3-(3-((1r,3r)-3-((5-(8,9-difluoro-5-methyl-5H-pyrido[4,3-b]indol-7-yl)pyridin-2-yl)oxy)cyclobutoxy)propoxy)propoxy)azetidin-1-yl)-2-(2,6-dioxopiperidin-3-yl)isoindoline-1,3-dione] |  | Degradation activity (tau protein remaining; highest amount of degradation observed at any dosage): C (>80% tau protein remaining after 72 hours of incubation with the test compound) |
| Cn1c2ccncc2c2ccc(-c3ccc(O[C@H]4C[C@H](Oc5ccc(C#CCN6CC(Oc7ccc8c(c7)C(=O)N(C7CCC(=O)NC7=O)C8=O)C6)nc5)C4)nc3)cc21 (stereo partly shown) [Compound 152, 2-(2,6-dioxopiperidin-3-yl)-5-((1-(3-(5-((1r,3r)-3-((5-(5-methyl-5H-pyrido[4,3-b]indol-7-yl)pyridin-2-yl)oxy)cyclobutoxy)pyridin-2-yl)prop-2-yn-1-yl)azetidin-3-yl)oxy)isoindoline-1,3-dione] | A (≤50% tau protein remaining after 72 hours of incubation with the test compound) |  |
| Cn1c2ccncc2c2ccc(-c3ccc(O[C@H]4C[C@H](OCCCCCOCCC5CN(c6ccc7c(c6)C(=O)N(C6CCC(=O)NC6=O)C7=O)C5)C4)nc3)cc21 (stereo partly shown) [Compound 181, 2-(2,6-dioxopiperidin-3-yl)-5-(3-(2-((5-((1r,3r)-3-((5-(5-methyl-5H-pyrido[4,3-b]indol-7-yl)pyridin-2-yl)oxy)cyclobutoxy)pentyl)oxy)ethyl)azetidin-1-yl)isoindoline-1,3-dione] |  | Degradation activity (tau protein remaining; highest amount of degradation observed at any dosage): B (≤80% and >50% tau protein remaining after 72 hours of incubation with the test compound) |
| Cc1ncoc1-c1ccc([C@H](C)NC(=O)[C@@H]2C[C@@H](O)CN2C(=O)[C@@H](NC(=O)COCCOCCOCCOCCN2CCN(c3ccn4c(n3)nc3ccccc34)CC2)C(C)(C)C)cc1 [Compound 20, (2S,4R)-1-((S)-17-(4-(benzo[4,5]imidazo[1,2-a]pyrimidin-2-yl)piperazin-1-yl)-2-(tert-butyl)-4-oxo-6,9,12,15-tetraoxa-3-azaheptadecanoyl)-4-hydroxy-N—((S)-1-(4-(4-methyloxazol-5-yl)phenyl)ethyl)pyrrolidine-2-carboxamide] |  | Activity* (highest amount of degradation observed at any dosage, as tau protein remaining): C (>80% tau protein remaining after 72 hours of incubation with the test compound) |
| Cc1ncoc1-c1ccc([C@H](C)NC(=O)[C@@H]2C[C@@H](O)CN2C(=O)[C@@H](NC(=O)COCCOCCOCCOCC(=O)N2CCN(c3ccn4c(n3)nc3ccccc34)CC2)C(C)(C)C)cc1 [Compound 22, (2S,4R)-1-((S)-17-(4-(benzo[4,5]imidazo[1,2-a]pyrimidin-2-yl)piperazin-1-yl)-2-(tert-butyl)-4,17-dioxo-6,9,12,15-tetraoxa-3-azaheptadecanoyl)-4-hydroxy-N—((S)-1-(4-(4-methyloxazol-5-yl)phenyl)ethyl)pyrrolidine-2-carboxamide] |  | Activity* (highest amount of degradation observed at any dosage, as tau protein remaining): C (>80% tau protein remaining after 72 hours of incubation with the test compound) |
| O=C1CCC(N2C(=O)c3ccc(N4CCN(CCN5CCC(O[C@H]6C[C@H](Oc7ccc(-c8ccc9c(c8)[nH]c8ccncc89)cn7)C6)CC5)CC4)cc3C2=O)C(=O)N1 (stereo partly shown) [Compound 66, 5-(4-(2-(4-((1r,3r)-3-((5-(5H-pyrido[4,3-b]indol-7-yl)pyridin-2-yl)oxy)cyclobutoxy)piperidin-1-yl)ethyl)piperazin-1-yl)-2-(2,6-dioxopiperidin-3-yl)isoindoline-1,3-dione] | C (>80% tau protein remaining after 72 hours of incubation with the test compound) |  |
| Cn1c2ccncc2c2ccc(-c3cnc(O[C@H]4C[C@H](Oc5ccc(C#CCN6CC(Oc7ccc8c(c7)C(=O)N(C7CCC(=O)NC7=O)C8=O)C6)nc5)C4)c(C(F)(F)F)c3)cc21 (stereo partly shown) [Compound 142, 2-(2,6-dioxopiperidin-3-yl)-5-((1-(3-(5-((1r,3r)-3-((5-(5-methyl-5H-pyrido[4,3-b]indol-7-yl)-3-(trifluoromethyl)pyridin-2-yl)oxy)cyclobutoxy)pyridin-2-yl)prop-2-yn-1-yl)azetidin-3-yl)oxy)isoindoline-1,3-dione] | C (>80% tau protein remaining after 72 hours of incubation with the test compound) |  |
| O=C1CCC(N2C(=O)c3c(F)c(F)c(OCCOCCOCCOCCOCCOc4ccc(-c5ccc6c(c5)[nH]c5ccncc56)cn4)c(F)c3C2=O)C(=O)N1 (stereo not shown) [Compound 72, 5-((14-((5-(5H-pyrido[4,3-b]indol-7-yl)pyridin-2-yl)oxy)-3,6,9,12-tetraoxatetradecyl)oxy)-2-(2,6-dioxopiperidin-3-yl)-4,6,7-trifluoroisoindoline-1,3-dione] | C (>80% tau protein remaining after 72 hours of incubation with the test compound) |  |
| Cn1c2ccncc2c2ccc(-c3ccc(O[C@H]4C[C@H](Oc5ccc(CCCCCOc6ccc7c(c6)C(=O)N(C6CCC(=O)NC6=O)C7=O)nc5)C4)nc3)cc21 (stereo partly shown) [Compound 95, 2-(2,6-dioxopiperidin-3-yl)-5-((5-(5-((1r,3r)-3-((5-(5-methyl-5H-pyrido[4,3-b]indol-7-yl)pyridin-2-yl)oxy)cyclobutoxy)pyridin-2-yl)pentyl)oxy)isoindoline-1,3-dione] | C (>80% tau protein remaining after 72 hours of incubation with the test compound) |  |
| CN(C)c1ccc(-c2ccc3cc(OCC(O)COCCOCCOCCNc4cccc5c4C(=O)N(C4CCC(=O)NC4=O)C5=O)ccc3n2)cc1 (stereo not shown) [Compound 47, 4-(2-(2-(2-(3-(2-(4-(dimethylamino)phenyl)quinolin-6-yloxy)-2-hydroxypropoxy)ethoxy)ethoxy)ethylamino)-2-(2,6-dioxopiperidin-3-yl)isodoline-1,3-dione] |  | Activity* (highest amount of degradation observed at any dosage, as tau protein remaining): C (>80% tau protein remaining after 72 hours of incubation with the test compound) |
| O=C1CCC(N2C(=O)c3ccc(OCCCCCc4ccc(O[C@H]5C[C@H](Oc6ccc(-c7ccc8c(c7)[nH]c7ccncc78)cn6)C5)cn4)cc3C2=O)C(=O)N1 (stereo partly shown) [Compound 83, 5-((5-(5-((1r,3r)-3-((5-(5H-pyrido[4,3-b]indol-7-yl)pyridin-2-yl)oxy)cyclobutoxy)pyridin-2-yl)pentyl)oxy)-2-(2,6-dioxopiperidin-3-yl)isoindoline-1,3-dione] | C (>80% tau protein remaining after 72 hours of incubation with the test compound) |  |
| Cc1ncsc1-c1ccc(CNC(=O)[C@@H]2C[C@@H](O)CN2C(=O)[C@@H](NC(=O)COCCCCOc2ccc3nc(-c4ccc(N(C)C)cc4)ccc3c2)C(C)(C)C)cc1 [Compound 33, (2S,4R)-1-((S)-2-(2-(4-(2-(4-(dimethylamino)phenyl)quinolin-6-yloxy)butoxy)acetamido)-3,3-dimethylbutanoyl)-4-hydroxy-N-(4-(4-methylthiazol-5-yl)benzyl)pyrrolidine-2-carboxamide] |  | Activity* (highest amount of degradation observed at any dosage, as tau protein remaining): C (>80% tau protein remaining after 72 hours of incubation with the test compound) |
| Cn1c2ccncc2c2ccc(-c3ccc(O[C@H]4C[C@H](Oc5ccc(C#CCCCCOc6ccc7c(c6)C(=O)N(C6CCC(=O)NC6=O)C7=O)nn5)C4)nc3)cc21 (stereo partly shown) [Compound 134, 2-(2,6-dioxopiperidin-3-yl)-5-((6-(6-((1r,3r)-3-((5-(5-methyl-5H-pyrido[4,3-b]indol-7-yl)pyridin-2-yl)oxy)cyclobutoxy)pyridazin-3-yl)hex-5-yn-1-yl)oxy)isoindoline-1,3-dione] | B (≤80% and >50% tau protein remaining after 72 hours of incubation with the test compound) |  |
| Cn1c2ccncc2c2ccc(-c3ccc(O[C@H]4C[C@@H](Oc5ccc(C#CCCCCOc6ccc7c(c6)C(=O)N(C6CCC(=O)NC6=O)C7=O)cn5)C4)nc3)cc21 (stereo partly shown) [Compound 144, 2-(2,6-dioxopiperidin-3-yl)-5-(6-(6-((1s,3s)-3-(5-(5-methyl-5H-pyrido[4,3-b]indol-7-yl)pyridin-2-yloxy)cyclobutoxy)pyridin-3-yl)hex-5-ynyloxy)isoindoline-1,3-dione] | C (>80% tau protein remaining after 72 hours of incubation with the test compound) |  |
| Cn1c2ccncc2c2ccc(-c3ccc(O[C@H]4C[C@H](OCCCCCCN5CCN(c6ccc7c(c6)C(=O)N(C6CCC(=O)NC6=O)C7=O)CC5)C4)nc3)cc21 (stereo partly shown) [Compound 78, 2-(2,6-dioxopiperidin-3-yl)-5-(4-(6-((1r,3r)-3-((5-(5-methyl-5H-pyrido[4,3-b]indol-7-yl)pyridin-2-yl)oxy)cyclobutoxy)hexyl)piperazin-1-yl)isoindoline-1,3-dione] | C (>80% tau protein remaining after 72 hours of incubation with the test compound) |  |
